Data as given in patent publication US20150139987A1, “TREATMENT OF HOMOZYGOUS FAMILIAL HYPERCHOLESTEROLEMIA” (CymaBay Therapeutics, Inc., priority 2013, published 2015).
Where two headings read alike, the source gives them in different places.

How the values were obtained:
[1] = molecular target: T1, peroxisome proliferator-activated receptor-δ (PPARδ) (Homo sapiens, UniProt Q03181); experiment: PPARδ agonist potency; format: biochemical
T1 sequence (Q03181 1-441): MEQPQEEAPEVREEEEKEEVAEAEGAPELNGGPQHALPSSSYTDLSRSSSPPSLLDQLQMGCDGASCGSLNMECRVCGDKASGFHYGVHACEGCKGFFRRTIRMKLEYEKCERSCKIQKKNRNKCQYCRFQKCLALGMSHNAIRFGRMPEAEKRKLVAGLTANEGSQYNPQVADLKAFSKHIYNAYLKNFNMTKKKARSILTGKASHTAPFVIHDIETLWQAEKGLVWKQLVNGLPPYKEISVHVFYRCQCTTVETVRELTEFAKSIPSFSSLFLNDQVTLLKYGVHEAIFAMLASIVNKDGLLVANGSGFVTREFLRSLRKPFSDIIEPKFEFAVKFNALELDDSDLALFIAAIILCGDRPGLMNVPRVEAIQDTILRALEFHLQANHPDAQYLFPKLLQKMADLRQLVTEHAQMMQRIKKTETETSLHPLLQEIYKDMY
Excerpt: (§1) PPARδ activation stimulates fatty acid oxidation and utilization, improves plasma lipid and lipoprotein metabolism, glucose utilization, and mitochondrial respiration, and preserves stem cell homeostasis.

PPARα = molecular target: T2, PPARα (Homo sapiens, UniProt Q07869); experiment: Specificity for PPARδ compared with PPARα; format: biochemical
T2 sequence (Q07869 1-468): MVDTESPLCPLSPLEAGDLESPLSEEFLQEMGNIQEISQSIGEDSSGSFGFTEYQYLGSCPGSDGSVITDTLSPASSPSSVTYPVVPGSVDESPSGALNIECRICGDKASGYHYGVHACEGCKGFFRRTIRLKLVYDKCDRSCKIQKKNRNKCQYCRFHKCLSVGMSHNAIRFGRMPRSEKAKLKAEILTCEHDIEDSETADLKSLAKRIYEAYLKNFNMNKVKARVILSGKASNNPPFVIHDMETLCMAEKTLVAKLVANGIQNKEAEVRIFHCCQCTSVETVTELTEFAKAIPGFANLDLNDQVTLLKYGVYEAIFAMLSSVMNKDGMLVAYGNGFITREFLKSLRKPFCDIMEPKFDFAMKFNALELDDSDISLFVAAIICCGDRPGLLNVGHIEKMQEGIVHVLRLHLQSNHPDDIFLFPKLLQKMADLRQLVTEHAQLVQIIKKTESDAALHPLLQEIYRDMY
Excerpt: as §1

[2] = tested on: knockout mice lacking LDLR; experiment: Lipid lowering in knockout mice lacking LDLR; format: in vivo
subjects with HoFH = experiment: Example 1: study with MBX-8025 in HoFH; format: in vivo, human; conditions: MBX-8025 L-lysine dihydrate salt 50, 100, or 200 mg/day
Experimental: Subjects are permitted their usual other medications, including lipid-lowering treatments. […] MRIs of the subjects' livers are taken every 4 weeks during the study and 4 weeks after study completion, to determine hepatic fat. At each visit, after a 12-hour fast, blood is drawn and urine collected; and a standard metabolic panel, complete blood count, and standard urinalysis are performed. Blood is analyzed for TC, HDL-C, LDL-C, VLDL-C, TG, and apoB. The subjects also maintain health diaries, which are reviewed at each visit.

[3] = tested on: subjects with mixed dyslipidemia; conditions: cited from earlier work; for reduction of LDL-C: 100 mg/day; for reduction of alkaline phosphatase: control group 4%
LDL particle size = conditions: pattern B <25.75 nm, I 25.75-26.34 nm, A >26.34 nm; US 2010-0152295; cited from earlier work
patients with HoFH [4] = conditions: cited from earlier work
[5] = tested on: healthy volunteers with hypercholesterolemia; conditions: cited from earlier work
patients with HeFH [6] = conditions: cited from earlier work
[7] = tested on: patients with hypercholesterolemia; conditions: week 12; sc 50, 100, 150 mg twice monthly or 200, 300 mg once monthly; cited from earlier work
apoB mRNA = conditions: HepG2, Hep3B, human and cynomolgus monkey primary hepatocytes; cited from earlier work
patients with HoFH [8] = conditions: added to maximally tolerated lipid lowering medications in HoFH patients; cited from earlier work
[9] = in vivo, cited from earlier work
[10] = tested on: patients with HoFH, HeFH, severe hyperlipidemia, high-risk coronary heart disease; conditions: human, in vivo; cited from earlier work
[11] = tested on: hypercholesterolemic subjects; conditions: cited from earlier work
patients with HeFH [12] = conditions: cited from earlier work; remark: listed apart in the source
[13] = alone and in combination with atorvastatin, 8 weeks

CCO[C@H](COc1ccc(C(F)(F)F)cc1)CSc1ccc(OCC(=O)O)c(C)c1 [MBX-8025, (R)-2-(4-((2-ethoxy-3-(4-(trifluoromethyl)phenoxy)propyl)thio)-2-methylphenoxy)acetic acid]
EC50 [1]: 2 nM
specificity for PPARδ compared with PPARα (PPARα): > 600 fold
LDLR dependence of LDL-C lowering [2]: do not require an effective LDLR to lower LDL-C and improve other lipid parameters
effect on TC, LDL-C, VLDL-C, TG, apoB and HDL-C (subjects with HoFH): dose-dependent lowering of TC, LDL-C, VLDL-C, TG and apoB, and raising of HDL-C
reduction of LDL-C ([3]; tertile with the highest starting LDL-C levels (187-205 mg/dL)): 35%
reduction of LDL-C ([3]; total population treated): 22%
decrease of LDL-S/VS ([3]; 8 weeks): 40-48%
increase of LDL-L ([3]; 8 weeks): 34-44%
reduction of apoB 100 compared to placebo ([3]; MBX-8025 50 or 100 mg alone and in combination with atorvastatin 20 mg, 8 weeks): 20-38%
raising of HDL-C [3, 13]: 1-12%
reduction of LDL compared to placebo [3, 13]: 18-43%
reduction of free fatty acids compared to placebo [3, 13]: 16-28%
reduction of high-sensitivity C-reactive protein compared to placebo [3, 13]: 43-72%
reduction of non-HDL-C compared to placebo [3, 13]: 18-41%
reduction of triglycerides compared to placebo [3, 13]: 26-30%
reduction of γ-glutamyl transpeptidase ([3]; control group 3%): 24-28%
reduction of alkaline phosphatase [3]: 32-43%
insulin sensitivity (HOMA-IR, fasting plasma glucose, insulin) ([3]; in vivo): increases insulin sensitivity
reduction of the percentage of subjects meeting the criteria for metabolic syndrome ([3]; in vivo): > 2 fold
safety and tolerability ([3]; in vivo): safe and generally well-tolerated
serum aminotransferases ([3]; in vivo): reducing serum aminotransferases
waist circumference and lean body mass ([3]; in vivo): trends towards a decrease in waist circumference and increase in lean body mass
LDL particle size pattern conversion (LDL particle size): converts LDL particle size pattern I to pattern A; and from pattern B to pattern I or A

CC(C)c1c(C(=O)Nc2ccccc2)c(-c2ccccc2)c(-c2ccc(F)cc2)n1CC[C@@H](O)C[C@@H](O)CC(=O)O [atorvastatin, reference compound]
decrease of LDL-L ([3]; 8 weeks): 30%
decrease of LDL-S/VS ([3]; 8 weeks): 25%
increase of γ-glutamyl transpeptidase ([3]; 8 weeks): 2%
reduction of alkaline phosphatase [3]: 6%

O=C(NC1CCN(CCCCC2(C(=O)NCC(F)(F)F)c3ccccc3-c3ccccc32)CC1)c1ccccc1-c1ccc(C(F)(F)F)cc1 [lomitapide, N-(2,2,2-trifluoroethyl)-9-(4-(4-(4′-(trifluoromethyl)-[1,1′-biphenyl]-2-ylcarboxamido)piperidin-1-yl)butyl)-9H-fluorene-9-carboxamide]
patients reporting gastrointestinal adverse reactions (patients with HoFH [4]; 27 of 29 patients, Phase 3 trial): 93%
patients reporting vomiting, dyspepsia and abdominal pain (each) (patients with HoFH [4]; AEs reported by 8 or more of 29 patients): ≥ 28%
patients reporting diarrhea (patients with HoFH [4]; Phase 3 trial, 29 patients): 79%
patients reporting nausea (patients with HoFH [4]; Phase 3 trial, 29 patients): 65%
patients who discontinued the trial for AEs (patients with HoFH [4]; of the 29 patients): Five
reduction of LDL-C [5]: up to 65%

Alirocumab: anti-PCSK9 antibody
reduction in LDL-C (patients with HeFH [6]; 150 mg/2 weeks sc): 68%
reduction in LDL-C (patients with HeFH [6]; 150 mg/4 weeks sc): 29%
tolerability (patients with HeFH [6]; in vivo): well tolerated

Bococizumab: anti-PCSK9 antibody
effect on LDL-C [7]: significant reductions in LDL-C at week 12

mipomersen
effect on apoB mRNA, protein, and secreted protein (apoB mRNA): selectively reduced apoB mRNA, protein, and secreted protein in a concentration- and time-dependent manner
reduction of LDL-C (patients with HoFH [8]): 25%
absorption time to maximum concentration ([9]; sc): 3 to 4 h
distribution half-life ([9]; sc): 2 to 5 h
elimination half-life ([9]; sc): 1-2 months
time to steady-state plasma trough [9]: ≤ 6 months
alanine aminotransferase ≧3× upper limit of normal [10]: 10%
aspartate aminotransferase ≧3× upper limit of normal [10]: 16%
flu-like symptoms (such as fatigue, fever, and chills) [10]: 30%
injection site reactions [10]: 84%
patients who discontinued for an adverse event or serious adverse event [10]: 18%
patients who discontinued for other reasons [10]: 4%
patients who discontinued for patient withdrawal [10]: 6%

B1: evolocumab: anti-PCSK9 antibody (antibody, chains of the INN, looked up, V domains shown)
VH: EVQLVQSGAEVKKPGASVKVSCKASGYTLTSYGISWVRQAPGQGLEWMGWVSFYNGNTNYAQKLQGRGTMTTDPSTSTAYMELRSLRSDDTAVYYCARGYGMDVWGQGTTVTVSS
VL: ESALTQPASVSGSPGQSITISCTGTSSDVGGYNSVSWYQQHPGKAPKLMIYEVSNRPSGVSNRFSGSKSGNTASLTISGLQAEDEADYYCNSYTSTSMVFGGGTKLTVL
reduction of LDL-C levels [11]: more than 50%
effect on LDL-C relative to placebo (patients with HeFH [12]; 140 mg every 2 weeks or 420 mg every month sc): Significant reductions in LDL-C
muscle-related AEs (patients with HeFH [12]; in vivo): 5%
nasopharyngitis (patients with HeFH [12]; in vivo): 9%
tolerability (patients with HeFH [12]; in vivo): well tolerated
